Test results: the supplement of paper PMC10949913

Columns and labels:
Assay in all cases: area under concentration-response curve (viability) (AUC (a.u.)); higher = less active
Conditions in all cases: 48 h
NCI-H295R = system: NCI-H295R
Outline: (§1)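 After 48 h of treatment with 23 nL of each library compound at 11 concentrations, three adrenocortical carcinoma cell lines in 1,536-well plates (500–1,000 cells/well, 5 µL medium) were given CellTiter-Glo for 15 minutes at room temperature. Luminescence was then read and normalised per plate to vehicle and empty-well controls. AC50 and area under the curve were drawn from fitted concentration-response curves of inhibitory or non-responding classes only.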

CU-ACC1 = system: CU-ACC1
Outline: as §1

CU-ACC2 = system: CU-ACC2
Outline: as §1

Row | SMILES | area under concentration-response curve (NCI-H295R) | area under concentration-response curve (CU-ACC1) | area under concentration-response curve (CU-ACC2)
1 | CC(C(=O)O)c1ccc(-c2ccccc2)c(F)c1 (centres undefined) | 470 | 469 | 479
2 | CCCc1nc2c(C)cc(-c3nc4ccccc4n3C)cc2n1Cc1ccc(-c2ccccc2C(=O)O)cc1 | 599 | 561 | 639
3 | CC1=CC(=O)c2ccccc2C1=O | 501 | 495 | 530
4 | Oc1ccc(C2CCN(c3ccnc4ccccc34)CC2)cc1O | 523 | 497 | 549
5 | CO[C@H](C1COC1)C2=C(Cl)C3=C(CCN(C\C4=C(OC)\C=C(\C)NC4=O)C3=O)C(=C2)Cl | 536 | 496 | 579
6 | N\C1=N\C2=C(N=C[N]2COCCO)C(=O)N1 | 584 | 420 | 616
7 | CC[C@H](/C=C/[C@@H](C)[C@H]1CC[C@H]2[C@@H]3CC=C4C[C@@H](O)CC[C@]4(C)[C@H]3CC[C@]12C)C(C)C | 602 | 550 | 612
8 | C[C@@H](c1ccc2nccn2c1)n1nnc2ncc(-c3cnn(C)c3)nc21 | 512 | 481 | 582
9 | N[S+](=O)([O-])c1cc(Cl)c(Cl)c([S+](N)(=O)[O-])c1 | 524 | 459 | 528
10 | C#CCC(Cc1cnc2nc(N)nc(N)c2n1)c1ccc(C(=O)N[C@@H](CCC(=O)O)C(=O)O)cc1 (some centres undefined) | 546 | 552 | 509
11 | CN(C)[C@H]\1[C@@H]2[C@@H](O)[C@@H]\3C(=C)C4=C(C(=CC=C4)O)C(=O)C3=C(\O)[C@@]2(O)C(=O)\C(=C1O)C(N)=O | 540 | 493 | 473
12 | Cn1cc(-c2ccc3ncc(Cc4ccc5ncccc5c4)n3n2)cn1 | 497 | 450 | 545
13 | O=P(O)(O)C(O)(Cc1cccnc1)P(=O)(O)[O][Na] (centres undefined) | 533 | 508 | 573
14 | Cc1cn(-c2cc(NC(=O)c3ccc(C)c(Nc4nccc(-c5cccnc5)n4)c3)cc(C(F)(F)F)c2)cn1 | 417 | 438 | 506
15 | COC1=CC=C(C=C1)C(=O)C2CCN(CC2)CC(=O)N(CC3CC3)C\C4=N\C5=C(\COCC5)C(=O)N4 | 520 | 495 | 564
16 | N[S+](=O)([O-])c1cc2c(cc1Cl)NC(C(Cl)Cl)N[S+]2(=O)[O-] (centres undefined) | 536 | 477 | 591
17 | OC[C@H]1O[C@H]([C@H](O)[C@@H]1O)N2\C=C/C(=O)NC2=O | 502 | 485 | 535
18 | Nc1cccc(-c2cc3c(Oc4cccc(O)c4)ncnc3[nH]2)c1 | 530 | 524 | 534
19 | O=C1Nc2ccc(I)cc2/C1=C/c1cc(Br)c(O)c(Br)c1 | 506 | 500 | 585
20 | CCOCC(O)COc1ccc(NC(=O)CC[S+](C)C)cc1 (centres undefined) | 411 | 367 | 394
21 | CCN[C@H]1C[C@H](C)[S+](=O)([O-])c2sc([S+](N)(=O)[O-])cc21 | 558 | 514 | 612
22 | N#Cc1ccnc(N2C(=O)CC[C@H]2C(=O)N(c2cncc(F)c2)[C@H](C(=O)NC2CC(F)(F)C2)c2ccccc2Cl)c1 | 560 | 486 | 613
23 | O=C(C[C@@H]1C/C=C\CCC(=O)O[C@H](c2ccccc2)CNC1=O)NCc1ccc(Cl)cc1 | 569 | 526 | 620
24 | O=C(c1ccc(C(=O)N2CCC(N3CCCC3)CC2)c(Nc2ccccc2)c1)N1CCC(N2CCCC2)CC1 | 556 | 493 | 601

Row | SMILES | area under concentration-response curve (NCI-H295R) | area under concentration-response curve (CU-ACC1) | area under concentration-response curve (CU-ACC2)
25 | CCOC(=O)c1c(/C(C#N)=C\N)c2ccc(Cl)c(Cl)c2n1C | 517 | 510 | 478
26 | CC\1=C(C(\N=C(/N1)C2=CC(=NC=C2)Cl)C3=C(F)C=C(Cl)C=C3)/C(=O)NC4=C(F)C=C5[NH]N=CC5=C4 (centres undefined) | 488 | 492 | 466
27 | Nc1nccc(-c2c(-c3ccc(F)cc3)ncn2C2CCN(Cc3ccon3)CC2)n1 | 495 | 467 | 578
28 | O=[S+]([O-])(c1cccc2cnccc12)N1CCCNCC1 | 534 | 502 | 560
29 | CC1=CC(=C(O)C(=C1C\C2=N\CCN2)C)C(C)(C)C | 496 | 515 | 579
30 | COC1=CC=C2/C3=N/CCN3\C(=N/C2=C1OC)NC(=O)C4=CC=CN=C4 | 619 | 662 | 698
31 | C/C=C/C(=O)N(CC)c1ccccc1C | 441 | 417 | 468
32 | CN1C2CCC1CC(OC(=O)C(CO)c1ccccc1)C2 (centres undefined) | 396 | 408 | 396
33 | CCCc1nc(C(C)(C)O)c(C(=O)O)n1Cc1ccc(-c2ccccc2-c2nn[nH]n2)cc1 | 462 | 436 | 521
34 | C[C@@H]1COCCN1C\2=C\C(=O)N\3CC[C@H](N(CC4=CN=CC(=C4)Cl)C3=N2)C(F)(F)F | 590 | 550 | 661
35 | NC12CC3CC(CC(C3)C1)C2 | 523 | 466 | 509
36 | O=C(C1CCCCC1)N1CC(=O)N2CCc3ccccc3C2C1 (centres undefined) | 544 | 555 | 631
37 | COc1ccc(Oc2cc(NCCC(F)(F)F)c3ncc(-c4ccc(C(=O)NC5CC5)c(C)c4)n3n2)c(F)c1F | 501 | 487 | 459
38 | CN1CC[C@@H](NC(=O)Nc2ccc(C#N)cc2)C[C@@H]1c1nc2ccccc2[nH]1 | 555 | 485 | 595
39 | CCCc1c(OCCCOc2ccc(OCC(=O)O)cc2)ccc(C(C)=O)c1O | 548 | 518 | 607
40 | Cn1c(COP(=O)(NCCBr)NCCBr)cnc1[N+](=O)[O-] | 514 | 394 | 575
41 | CC(=O)OC[C@@H]1O[C@H]([C@H](OC(C)=O)[C@@H]1OC(C)=O)N2\C=C/C(=O)NC2=O | 459 | 497 | 521
42 | COc1cc[nH]c2ncc(C(=O)C(=O)N3CCN(C(=O)c4ccccc4)C[C@H]3C)c1-2 | 560 | 545 | 632
43 | CC(C[N+](C)(C)C)OC(N)=O (centres undefined) | 591 | 569 | 662
44 | CN1\C(=C(\O)C2=CC=CC=C2[S+]1([O-])=O)C(=O)NC3=NC=C(C)S3 | 511 | 461 | 523
45 | Cc1nnc(N[S+](=O)([O-])c2ccc(N)cc2)s1 | 546 | 496 | 591
46 | NC1=NC(=C(C#N)C(=N1)N)N[C@@H](C2CC2)\C3=N\C4=C(C(=CC=C4F)Cl)C(=O)N3C5=CC=CN=C5 | 526 | 511 | 570
47 | CCCCC(F)(F)[C@@]1(O)CC[C@H]2[C@@H](CC(=O)[C@@H]2CCCCCCC(=O)O)O1 | 541 | 494 | 599
48 | COC/1=C/[C@@H]2[C@@H]3CC4=C(C(=C(OC)C=C4)O)[C@]2(CCN3C)CC1=O | 479 | 457 | 519
